Values quoted from earlier work in article PMC9516332 (Frontiers in Oncology, 2022).
Where two headings read alike, the source gives them in different places.

Assays:
[1] = target: T1, panel of 255 wild-type kinases (Homo sapiens, UniProt O14965); settings: 1 µmol/L single concentration, cited from earlier work; for %-inhibition AurA: AurA kinase assay; for %-inhibition AurA/TPX2: AurA/TPX2 kinase assay
T1 sequence (O14965 1-403): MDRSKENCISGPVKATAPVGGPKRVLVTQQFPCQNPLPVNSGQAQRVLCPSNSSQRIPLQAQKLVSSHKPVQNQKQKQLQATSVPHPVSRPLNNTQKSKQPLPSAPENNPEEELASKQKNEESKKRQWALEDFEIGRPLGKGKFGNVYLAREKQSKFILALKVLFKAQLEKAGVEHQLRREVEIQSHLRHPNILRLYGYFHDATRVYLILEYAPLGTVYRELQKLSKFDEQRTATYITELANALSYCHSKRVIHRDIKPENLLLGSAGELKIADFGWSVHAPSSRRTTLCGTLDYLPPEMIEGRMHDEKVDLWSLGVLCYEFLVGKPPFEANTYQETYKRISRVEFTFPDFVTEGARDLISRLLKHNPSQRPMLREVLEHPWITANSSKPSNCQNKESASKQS

[2] = target: panel of 255 wild-type kinases (Homo sapiens, UniProt P11309); settings: kinase PIM1, 1 µmol/L single concentration, cited from earlier work
[3] = target: panel of 255 wild-type kinases (Homo sapiens, UniProt P22607); settings: kinase FGFR3, 1 µmol/L single concentration, cited from earlier work
[4] = target: panel of 255 wild-type kinases (Homo sapiens, UniProt P50613); settings: CDK7/CycH/MAT1 kinase assay, 1 µmol/L single concentration, cited from earlier work
[5] = target: panel of 255 wild-type kinases (Homo sapiens, UniProt Q00526); settings: CDK3/CycE1 kinase assay, 1 µmol/L single concentration, cited from earlier work
[6] = target: panel of 255 wild-type kinases (Homo sapiens, UniProt Q13464); settings: kinase ROCK1, 1 µmol/L single concentration, cited from earlier work
[7] = target: panel of 255 wild-type kinases (Homo sapiens, UniProt Q8N4C8); settings: MINK, 1 µmol/L single concentration, cited from earlier work
[8] = target: T2, panel of 255 wild-type kinases (Homo sapiens, UniProt Q92630); settings: kinase DYRK2, 1 µmol/L single concentration, cited from earlier work
T2 sequence (Q92630 1-601): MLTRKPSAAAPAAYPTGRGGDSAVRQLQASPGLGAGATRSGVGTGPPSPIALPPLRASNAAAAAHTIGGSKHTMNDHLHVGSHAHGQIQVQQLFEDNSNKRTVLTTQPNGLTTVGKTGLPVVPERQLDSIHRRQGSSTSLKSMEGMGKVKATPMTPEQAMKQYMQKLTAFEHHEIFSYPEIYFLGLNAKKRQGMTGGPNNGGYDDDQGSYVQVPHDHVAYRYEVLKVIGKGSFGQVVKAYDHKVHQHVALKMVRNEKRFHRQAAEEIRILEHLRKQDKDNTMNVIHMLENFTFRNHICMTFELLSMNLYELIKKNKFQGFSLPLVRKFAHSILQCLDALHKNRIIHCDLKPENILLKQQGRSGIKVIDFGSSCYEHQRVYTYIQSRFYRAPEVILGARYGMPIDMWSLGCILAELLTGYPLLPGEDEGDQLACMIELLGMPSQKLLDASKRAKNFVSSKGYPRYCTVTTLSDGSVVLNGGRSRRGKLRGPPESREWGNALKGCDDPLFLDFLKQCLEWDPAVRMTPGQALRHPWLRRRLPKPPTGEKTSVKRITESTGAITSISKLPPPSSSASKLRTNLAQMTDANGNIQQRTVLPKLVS

[9] = target: T3, panel of 255 wild-type kinases (Homo sapiens, UniProt Q9BZL6); settings: kinase PKD2, 1 µmol/L single concentration, cited from earlier work
T3 sequence (Q9BZL6 1-878): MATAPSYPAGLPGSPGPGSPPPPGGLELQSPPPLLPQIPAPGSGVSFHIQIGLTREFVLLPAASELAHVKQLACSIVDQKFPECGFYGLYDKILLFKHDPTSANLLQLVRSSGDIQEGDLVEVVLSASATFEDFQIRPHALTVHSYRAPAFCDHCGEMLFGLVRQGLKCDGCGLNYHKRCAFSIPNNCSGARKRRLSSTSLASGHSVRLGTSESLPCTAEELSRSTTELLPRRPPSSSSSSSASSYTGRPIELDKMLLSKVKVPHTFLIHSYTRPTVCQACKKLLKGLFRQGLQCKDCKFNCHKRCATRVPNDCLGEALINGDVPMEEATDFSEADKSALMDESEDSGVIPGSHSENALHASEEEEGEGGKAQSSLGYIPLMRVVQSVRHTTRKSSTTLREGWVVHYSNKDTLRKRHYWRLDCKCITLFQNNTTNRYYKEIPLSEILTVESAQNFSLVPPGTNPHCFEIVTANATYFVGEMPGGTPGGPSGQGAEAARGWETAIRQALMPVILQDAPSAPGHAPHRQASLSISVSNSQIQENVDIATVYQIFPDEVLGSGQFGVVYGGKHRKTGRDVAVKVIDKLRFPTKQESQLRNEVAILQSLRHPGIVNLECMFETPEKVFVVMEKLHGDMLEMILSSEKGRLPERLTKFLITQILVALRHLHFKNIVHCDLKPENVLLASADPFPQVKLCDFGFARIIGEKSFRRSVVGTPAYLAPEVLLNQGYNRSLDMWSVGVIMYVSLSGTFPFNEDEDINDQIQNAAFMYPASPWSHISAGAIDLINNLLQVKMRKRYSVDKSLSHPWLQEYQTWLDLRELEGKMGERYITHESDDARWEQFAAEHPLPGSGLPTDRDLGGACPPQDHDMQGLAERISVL

[10] = target: panel of 255 wild-type kinases (Homo sapiens, UniProt Q9Y6E0); settings: MST3, 1 µmol/L single concentration, cited from earlier work
[11] = ref DOI: 10.1158/1535-7163.MCT-18-0877
[12] = ref DOI: 10.1371/journal.pone.0092146

Row | SMILES | %-inhibition AurA [1, 11] | %-inhibition AurA/TPX2 [1, 11] | %-inhibition at 1 µmol/L, PIM1 [2, 11] | %-inhibition at 1 µmol/L, FGFR3 [3, 11] | %-inhibition CDK7/CycH/MAT1 [4, 11] | %-inhibition CDK3/CycE1 [5, 11] | %-inhibition at 1 µmol/L, ROCK1 [6, 11] | %-inhibition, MINK [7, 11] | %-inhibition at 1 µmol/L, DYRK2 [8, 11] | %-inhibition at 1 µmol/L, PKD2 [9, 11] | %-inhibition, MST3 [10, 11] | %-inhibition AurA [1, 12] | %-inhibition AurA/TPX2 [1, 12] | %-inhibition at 1 µmol/L, PIM1 [2, 12] | %-inhibition at 1 µmol/L, FGFR3 [3, 12] | %-inhibition CDK7/CycH/MAT1 [4, 12] | %-inhibition CDK3/CycE1 [5, 12] | %-inhibition at 1 µmol/L, ROCK1 [6, 12] | %-inhibition, MINK [7, 12] | %-inhibition at 1 µmol/L, DYRK2 [8, 12] | other results
1 | O=C(c1ccc(F)c(F)c1Nc1ccc(I)cc1F)N1CC(O)([C@@H]2CCCCN2)C1 [cobimetinib] | -0.696% | -1.88% | 1% | 5% | 6% | 2.16% | -2.61% | -2.67% | -2.74% | -11% | 4.62% | – | – | – | – | – | – | – | – | – | –
2 | C=CC(=O)Nc1cc(Nc2nccc(-c3cn(C)c4ccccc34)n2)c(OC)cc1N(C)CCN(C)C [osimertinib] | 9% | 7.38% | -4.4% | 10% | 8.57% | 22% | -5% | 21% | 45% | 16% | 5.71% | – | – | – | – | – | – | – | – | – | –
3 | CC(=O)Nc1cccc(-n2c(=O)n(C3CC3)c(=O)c3c(Nc4ccc(I)cc4F)n(C)c(=O)c(C)c32)c1 [trametinib] | – | – | – | – | – | – | – | – | – | – | – | -2% | -5.37% | 4.44% | -5.68% | -6% | 0.16% | 3.21% | -1.8% | -0.0865% | %-inhibition at 1 µmol/L, PKD2 [9, 12]: -3.28%; %-inhibition, MST3 [10, 12]: 1.75%
4 | CCCS(=O)(=O)Nc1ccc(F)c(C(=O)c2c[nH]c3ncc(-c4ccc(Cl)cc4)cc23)c1F [vemurafenib] | – | – | – | – | – | – | – | – | – | – | – | 23% | -2.59% | -3.41% | 15% | 0.137% | -4.34% | 1.28% | 10% | 1% | %-inhibition at 1 µmol/L, PKD2 [9, 12]: -13%; %-inhibition, MST3 [10, 12]: -1.73%
